# Where “and” joins values, the source holds several entries; their conditions need not be identical. Equal values may be shown once.
# How the values were obtained:
# BCL-XL in BM KSL cells = test: BCL-XL protein intracellular flow cytometry of BM KSL cells; type: cell-based, mouse
# Experimental: Intracellular flow cytometric analysis was performed on irradiated (300 cGy) or non-irradiated, sorted KSL cells after treatment with 1 μg/mL DJ001 or control (equal volumes of DMSO) for 24 h. At 24 h after irradiation, cells were fixed with 4% PFA for 10 min, followed by permeabilization using 0.25% saponin in PBS. Cells were washed again and stained with antibody at the recommended concentrations for 30 min at RT. Intracellular antibodies and phospho-flow antibodies used were as follows: FITC-conjugated anti-BCL-XL (Abcam, #26148, 1:100), active RAC1-GTP antibody (NewEast Biosciences, #26903, 1:100) and anti-PAK1 (phospho S144) + PAK2 (phospho S141) + PAK3 (phospho S154) antibody (Abcam, #40795, 1:100), and FITC-conjugated goat anti-rabbit IgG H&L (Abcam, #97050, 1:200).
# [1] = biological target: T1, PTPσ-p250GAP complex in BM KSL cells (Mus musculus, UniProt B0V2N1); test: Proximity ligation assay; type: cell-based; settings: 1 μg/mL DJ001, 1 h
# T1 construct: endogenous in cells; host or cells: primary bone marrow KSL (c-kit+ Sca-1+ lin-) cells of C57BL/6 mice
# T1 sequence (B0V2N1 30-1907, one chain of several): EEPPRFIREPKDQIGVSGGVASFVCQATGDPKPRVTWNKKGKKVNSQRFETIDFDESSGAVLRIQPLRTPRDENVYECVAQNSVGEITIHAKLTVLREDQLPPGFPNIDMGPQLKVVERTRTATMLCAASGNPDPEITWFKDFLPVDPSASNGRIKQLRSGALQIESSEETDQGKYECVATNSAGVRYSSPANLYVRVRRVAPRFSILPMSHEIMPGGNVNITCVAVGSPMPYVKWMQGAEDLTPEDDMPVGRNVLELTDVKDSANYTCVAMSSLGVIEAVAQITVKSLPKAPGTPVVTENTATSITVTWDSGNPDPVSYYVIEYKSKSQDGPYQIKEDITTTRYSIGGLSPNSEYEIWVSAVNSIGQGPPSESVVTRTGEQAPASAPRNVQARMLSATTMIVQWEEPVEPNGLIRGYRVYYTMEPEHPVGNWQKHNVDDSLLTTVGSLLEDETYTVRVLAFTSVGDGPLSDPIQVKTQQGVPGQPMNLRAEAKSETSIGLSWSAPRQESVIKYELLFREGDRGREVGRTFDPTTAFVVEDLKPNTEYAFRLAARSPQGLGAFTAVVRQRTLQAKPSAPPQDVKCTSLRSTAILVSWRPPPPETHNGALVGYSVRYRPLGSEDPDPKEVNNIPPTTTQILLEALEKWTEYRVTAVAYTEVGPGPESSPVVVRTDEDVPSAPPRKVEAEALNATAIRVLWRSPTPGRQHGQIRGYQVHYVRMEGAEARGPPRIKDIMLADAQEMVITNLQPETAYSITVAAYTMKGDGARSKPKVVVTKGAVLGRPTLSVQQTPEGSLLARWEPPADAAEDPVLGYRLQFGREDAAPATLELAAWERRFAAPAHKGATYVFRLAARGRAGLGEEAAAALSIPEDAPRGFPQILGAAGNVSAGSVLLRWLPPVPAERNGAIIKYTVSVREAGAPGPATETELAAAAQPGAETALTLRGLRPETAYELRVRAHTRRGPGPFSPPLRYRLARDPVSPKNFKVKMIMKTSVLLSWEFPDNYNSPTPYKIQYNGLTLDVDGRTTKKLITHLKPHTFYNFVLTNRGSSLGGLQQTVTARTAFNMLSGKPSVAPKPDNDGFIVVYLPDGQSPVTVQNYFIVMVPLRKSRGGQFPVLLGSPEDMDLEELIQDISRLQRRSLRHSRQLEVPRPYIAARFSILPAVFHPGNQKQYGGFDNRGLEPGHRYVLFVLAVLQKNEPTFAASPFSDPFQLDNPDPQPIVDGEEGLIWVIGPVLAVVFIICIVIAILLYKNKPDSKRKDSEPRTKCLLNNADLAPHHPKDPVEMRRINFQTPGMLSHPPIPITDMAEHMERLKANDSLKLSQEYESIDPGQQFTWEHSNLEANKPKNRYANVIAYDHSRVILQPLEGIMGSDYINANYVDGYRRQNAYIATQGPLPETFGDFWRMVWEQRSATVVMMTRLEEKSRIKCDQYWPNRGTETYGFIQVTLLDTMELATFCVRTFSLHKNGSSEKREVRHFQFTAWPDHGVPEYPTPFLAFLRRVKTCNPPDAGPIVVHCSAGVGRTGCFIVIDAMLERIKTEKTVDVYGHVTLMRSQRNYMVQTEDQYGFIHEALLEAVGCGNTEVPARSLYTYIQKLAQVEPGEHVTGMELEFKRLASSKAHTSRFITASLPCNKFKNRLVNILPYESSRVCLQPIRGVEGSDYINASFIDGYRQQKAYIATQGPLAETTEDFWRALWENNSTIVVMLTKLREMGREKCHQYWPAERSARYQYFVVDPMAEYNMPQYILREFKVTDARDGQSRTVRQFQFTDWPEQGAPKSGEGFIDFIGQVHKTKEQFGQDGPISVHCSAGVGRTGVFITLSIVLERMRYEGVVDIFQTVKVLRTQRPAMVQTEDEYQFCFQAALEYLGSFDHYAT
# Experimental: A PLA assay was performed by using the Duolink In Situ Red Starter Kit (Millipore Sigma) to detect the binding between PTPσ and p250GAP proteins. BM KSL cells from C57BL/6 mice were sorted by fluorescence-activated cell sorting and then plated onto fibronectin pre-coated chamber slides overnight. The next day, cells were treated with 1 μg/mL DJ001 or vehicle (equal volume of DMSO) for 1 h at 37 °C. Cells were then fixed with 4% paraformaldehyde (PFA) for 20 min. The slides were blocked with Duolink blocking solution and incubated with rabbit anti-ARHGAP32 polyclonal antibody (Bioss Antibodies, #bs-9296R, 1:50 dilution) and goat anti-PTPσ (K-19) polyclonal antibody (Santa Cruz Biotechnology, #sc-10873, 1:50) overnight at 4 °C. Cells were imaged using a Leica SP8 Confocal Microscope equipped with a ×63 objective lens. A white light laser set to 580 nm was used to excite dsRed and a UV laser was used to excite 4′,6-diamidino-2-phenylindole (DAPI). Analysis was performed using the spots detection function in IMARIS 9.0.2 (Bitplane).
# Protein Phosphatase 5 = biological target: T2, Protein Phosphatase 5 (Homo sapiens, UniProt P53041); test: PhosphataseProfiler screen: PP5; type: biochemical; settings: for Supplementary Figure 1: PP5 activity: replicates
# T2 construct: purchased Eurofins Pharma Discovery Services UK
# T2 sequence (P53041 1-499): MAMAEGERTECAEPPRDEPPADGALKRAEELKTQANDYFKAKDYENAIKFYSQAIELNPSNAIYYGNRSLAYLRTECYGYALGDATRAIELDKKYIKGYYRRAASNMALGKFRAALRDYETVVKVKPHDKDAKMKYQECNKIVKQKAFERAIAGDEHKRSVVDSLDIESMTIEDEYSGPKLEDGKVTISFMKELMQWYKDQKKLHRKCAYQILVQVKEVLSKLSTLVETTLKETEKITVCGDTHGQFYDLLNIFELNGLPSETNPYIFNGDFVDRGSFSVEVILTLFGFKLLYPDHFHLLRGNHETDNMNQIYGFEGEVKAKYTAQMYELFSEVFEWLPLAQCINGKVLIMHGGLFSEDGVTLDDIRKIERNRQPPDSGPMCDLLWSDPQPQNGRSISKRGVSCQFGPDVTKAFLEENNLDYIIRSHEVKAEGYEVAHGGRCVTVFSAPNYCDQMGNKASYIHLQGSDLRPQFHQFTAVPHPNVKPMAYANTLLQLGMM
# Experimental: (§1) Compound DJ001 was evaluated in a PhosphataseProfiler™ screen at 10 μM and 1 μM (2.7 μg/mL and 0.27 μg/mL) concentrations at Eurofins Pharma Discovery Services UK (Study number UK022-0004033) against a panel of 21 Phosphatases. In each experiment, the respective reference antagonist/agonist was tested directly with DJ001 and the data were compared with historical values determined at Eurofins. DJ001 compound inhibition was calculated as percentage inhibition of the enzymatic activity compared with control.
# human BM CD34+ cells = test: CFU-GEMM from 300 cGy-irradiated human BM CD34+ cells; type: cell-based
# Experimental: CFC assays (colony-forming unit-granulocyte monocyte), burst-forming unit-erythroid, and CFU-GEMM were performed using MethoCult GF M3434 (Stemcell Technologies)[6]. For all in vitro assays, BM CD34^−KSL cells, KSL cells, and Lin^− cells were cultured in TSF media (IMDM, 10% FBS, 1% pen-strep, 20 ng/mL recombinant mouse TPO, 125 ng/mL recombinant mouse SCF, 50 ng/mL recombinant mouse Flt3 ligand). Recombinant mouse SCF, Flt3 ligand, and TPO were purchased from R&D Systems. For competitive repopulation assays, BM cells were isolated from donor 10–12-week-old female CD45.2^+ mice. Recipient 10-week-old female CD45.1^+ B6.SJL mice were irradiated with 950 cGy TBI using a Cs137 irradiator and donor BM cells were administered via tail vein injection along with a competing dose of 1 × 10^5 non-irradiated host BM cells. Multilineage donor hematopoietic cell engraftment was measured in the PB by flow cytometry.
# Human BM mononuclear cells were purchased from AllCells. Cryopreserved human BM cells were recovered in IMDM + 10% FBS + 1% penicillin–streptomycin and then positively selected for CD34^+ stem/progenitor cells by using CD34 MicroBead Kit (Miltenyi Biotec, #130-046-702, 1:5). […]
# [2] = biological target: T3, SHP-1 (Protein-Tyrosine Phosphatase 1C) (Homo sapiens, UniProt P29350); test: PhosphataseProfiler screen: SHP-1; type: biochemical; settings: replicates
# T3 construct: purchased Eurofins Pharma Discovery Services UK
# T3 sequence (P29350 whole entry, species assumed): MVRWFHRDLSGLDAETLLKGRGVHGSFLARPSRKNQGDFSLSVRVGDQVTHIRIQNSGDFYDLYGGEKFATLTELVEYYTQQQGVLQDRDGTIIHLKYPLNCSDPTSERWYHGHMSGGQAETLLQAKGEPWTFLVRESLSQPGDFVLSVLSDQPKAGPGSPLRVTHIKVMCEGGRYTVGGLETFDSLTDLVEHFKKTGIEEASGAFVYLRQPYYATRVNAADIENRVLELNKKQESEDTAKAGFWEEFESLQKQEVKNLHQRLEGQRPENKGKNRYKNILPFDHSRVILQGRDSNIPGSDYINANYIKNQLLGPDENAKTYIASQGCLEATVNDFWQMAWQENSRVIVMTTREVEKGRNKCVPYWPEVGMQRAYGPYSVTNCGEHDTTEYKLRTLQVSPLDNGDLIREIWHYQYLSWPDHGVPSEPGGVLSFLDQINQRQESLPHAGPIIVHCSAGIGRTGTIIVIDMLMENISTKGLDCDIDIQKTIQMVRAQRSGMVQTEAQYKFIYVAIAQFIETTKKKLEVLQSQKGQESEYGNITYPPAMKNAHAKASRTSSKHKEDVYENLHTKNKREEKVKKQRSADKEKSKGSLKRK
# Experimental: as §1
smiles,measurement,setting,value
"O=C(/C=C\Nc1cccc([N+](=O)[O-])c1)c1ccccc1 [DJ001, (Z)-3-((3-nitrophenyl)amino)-1-phenylprop-2-en-1-one]",BCL-XL protein levels,BCL-XL in BM KSL cells; 300 cGy-irradiated BM KSL cells,increased
same,Figure 3h: BCL-XL protein in BM KSL cells,"BCL-XL in BM KSL cells; irradiated cells, replicates",17.43 and 16.61 and 16.35 and 15.49 and 16.56 and 12.16
same,co-localization of PTPσ and p250GAP,[1],significantly decreased co-localization
same,Supplementary Figure 1: PP5 activity,Protein Phosphatase 5; 2.7 μg/mL DJ001,58 and 54 and 60
same,Supplementary Figure 1: PP5 activity,Protein Phosphatase 5; 0.27 g/mL DJ001,78 and 80 and 75
same,inhibitory activity against Protein Phosphatase 5,Protein Phosphatase 5; DJ001 at 10 μM and 1 μM,only modest inhibitory activity
same,Figure 5b: CFU-GEMM,"human BM CD34+ cells; 300 cGy-irradiated human BM CD34+ cells, replicates",8 and 13 and 15 and 22 and 19 and 14
same,recovery of multipotent CFU-GEMMs,human BM CD34+ cells; 72 h following 300 cGy irradiation of human BM CD34+ cells,increased the recovery of multipotent CFU-GEMMs
same,Supplementary Figure 1: SHP-1 activity,[2]; 2.7 μg/mL DJ001,81 and 82 and 85
same,Supplementary Figure 1: SHP-1 activity,[2]; 0.27 g/mL DJ001,99 (2×) and 102
